Assay results taken from article PMC3629922 (ACS medicinal chemistry letters, 2013).

Assays:
D2 receptor = details: cited from earlier work
5-HT2B receptor [1] = molecular target: T1, 5-HT2B receptor (Homo sapiens, UniProt P41595); experiment: 5-HT2B functional assay using HTRF quantitation of IP1 accumulation; type: cell-based
5-HT2B receptor [2] = molecular target: T1, 5-HT2B receptor; experiment: 5-HT2B functional assay, intracellular calcium mobilization; type: cell-based; details: FLIPR Tetra, n = 5
5-HT2B receptor [3] = molecular target: T1, 5-HT2B receptor; experiment: 5-HT2B functional antagonism against serotonin; type: cell-based
D4 = molecular target: T2, D4 (Homo sapiens, UniProt P21917); experiment: D4 functional assay; type: cell-based; details: performed at the PDSP
T2 sequence (P21917 1-419): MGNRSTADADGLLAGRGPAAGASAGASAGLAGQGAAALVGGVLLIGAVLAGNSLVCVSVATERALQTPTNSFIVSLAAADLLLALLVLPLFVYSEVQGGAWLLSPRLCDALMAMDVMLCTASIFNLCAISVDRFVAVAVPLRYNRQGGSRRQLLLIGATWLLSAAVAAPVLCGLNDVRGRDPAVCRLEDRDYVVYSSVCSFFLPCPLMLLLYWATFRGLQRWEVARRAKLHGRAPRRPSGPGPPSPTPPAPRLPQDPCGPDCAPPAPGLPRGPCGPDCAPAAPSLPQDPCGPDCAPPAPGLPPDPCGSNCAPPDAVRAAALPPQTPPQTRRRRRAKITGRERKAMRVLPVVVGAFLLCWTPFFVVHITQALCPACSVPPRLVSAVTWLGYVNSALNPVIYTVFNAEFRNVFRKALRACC

D2 = D2 (Homo sapiens, UniProt P14416); experiment: D2 functional assay; type: cell-based; details: performed at the PDSP
5-HT2B receptor [4] = molecular target: T1, 5-HT2B receptor; details: binding and functional assays; cited from earlier work
[5] = test system: 5-HT2B receptors in porcine pulmonary arteries; details: cited from earlier work

T1 sequence (P41595 whole entry): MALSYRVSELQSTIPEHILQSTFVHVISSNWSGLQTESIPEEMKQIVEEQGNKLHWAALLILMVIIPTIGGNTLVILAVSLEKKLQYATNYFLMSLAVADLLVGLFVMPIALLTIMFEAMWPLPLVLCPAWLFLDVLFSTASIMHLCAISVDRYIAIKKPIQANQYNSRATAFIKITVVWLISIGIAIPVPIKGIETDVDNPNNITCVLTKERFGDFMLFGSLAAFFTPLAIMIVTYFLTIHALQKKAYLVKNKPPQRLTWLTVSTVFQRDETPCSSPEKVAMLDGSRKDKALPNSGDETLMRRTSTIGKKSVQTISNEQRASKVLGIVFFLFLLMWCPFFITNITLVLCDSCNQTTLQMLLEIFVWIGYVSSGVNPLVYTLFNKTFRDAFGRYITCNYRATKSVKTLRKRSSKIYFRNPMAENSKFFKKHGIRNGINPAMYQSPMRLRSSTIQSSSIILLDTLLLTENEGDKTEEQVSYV
D2, sequence (P14416 whole entry): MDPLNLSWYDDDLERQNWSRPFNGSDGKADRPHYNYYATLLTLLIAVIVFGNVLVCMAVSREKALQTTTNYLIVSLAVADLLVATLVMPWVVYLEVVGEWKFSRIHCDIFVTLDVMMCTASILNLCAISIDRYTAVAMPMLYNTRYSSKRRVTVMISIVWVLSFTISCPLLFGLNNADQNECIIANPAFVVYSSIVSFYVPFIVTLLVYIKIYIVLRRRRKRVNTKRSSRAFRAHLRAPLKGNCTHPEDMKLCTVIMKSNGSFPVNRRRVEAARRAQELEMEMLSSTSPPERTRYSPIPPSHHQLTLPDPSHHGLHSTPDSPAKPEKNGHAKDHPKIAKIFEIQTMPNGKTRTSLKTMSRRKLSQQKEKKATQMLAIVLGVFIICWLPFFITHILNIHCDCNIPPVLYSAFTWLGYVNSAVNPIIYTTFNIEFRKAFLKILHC

**Q.** For `CSC[C@@H]1C[C@@H]2c3cccc4[nH]cc(c34)C[C@H]2N(C)C1` [6-methylpergolide], which “Functionality at the D2 receptor” value (D2 receptor) is on record?
**A.** full agonists

**Q.** Which “Functionality at the 5-HT2B receptor (IP1 assay)” value (shortened to “Functionality … (IP1 assay)”) (5-HT2B receptor [1]) does the source give for `C=CCN1C[C@H](C(=O)N(CCCN2CCOCC2)C(=O)NCC)C[C@@H]2c3cccc4[nH]cc(c34)C[C@H]21` [Compound 1] here?
**A.** full agonists

**Q.** What does the source list for `CCNC(=O)N(CCCN(C)C)C(=O)[C@@H]1C[C@@H]2c3cccc4c3c(cn4C)C[C@H]2N(C)C1` [Compound 9, 1,6-Dimethylcabergoline]?
**A.** Functionality at the 5-HT2B receptor (IP1 assay) (5-HT2B receptor [1]): no agonism; Functionality at the human 5-HT2B receptor (calcium mobilization assay) (5-HT2B receptor [2]): no agonism; Antagonism against serotonin at the 5-HT2B receptor (5-HT2B receptor [3]): potent antagonists; D4 functionality (D4): full D4 agonist; D2 functionality (D2): potent but partial D2 agonist

**Q.** With `CN(C)CCCNC(=O)[C@@H]1C[C@@H]2c3cccc4c3c(cn4C)C[C@H]2N(C)C1` [Compound 14] as the compound, how does the “Functionality … (IP1 assay)” value (5-HT2B receptor [1]) read?
**A.** minimal to no agonism

**Q.** What about the “Functionality at the human 5-HT2B receptor (calcium mobilization assay)” value (5-HT2B receptor [2]) of the same compound?
**A.** minimal to no agonism

**Q.** What about the “Antagonism against serotonin at the 5-HT2B receptor” value (5-HT2B receptor [3]) of the same compound?
**A.** potent antagonists

**Q.** For `COC(OC)[C@@H]1C[C@@H]2c3cccc4c3c(cn4C)C[C@H]2N(C)C1` [Compound 15], which “Functionality … (IP1 assay)” value (5-HT2B receptor [1]) is on record?
**A.** no agonism

**Q.** And the “Functionality at the human 5-HT2B receptor (calcium mobilization assay)” value (5-HT2B receptor [2])?
**A.** no agonism

**Q.** And the “Antagonism against serotonin at the 5-HT2B receptor” value (5-HT2B receptor [3])?
**A.** potent antagonists

**Q.** Which “Functionality … (IP1 assay)” value (5-HT2B receptor [1]) does the source give for `C=CCN1C[C@H](C(=O)N(CCCN(C)C)C(=O)NCC)C[C@@H]2c3cccc4[nH]cc(c34)C[C@H]21` [cabergoline, reference compound] here?
**A.** full agonists

**Q.** Which “Activity at the 5-HT2B receptor” value (5-HT2B receptor [4]) does the source give for `CC[C@@H](CO)NC(=O)[C@@H]1C=C2c3cccc4[nH]cc(c34)C[C@H]2N(C)C1` [methylergonovine] here?
**A.** partial agonist

**Q.** With `CC[C@@H](CO)NC(=O)[C@@H]1C=C2c3cccc4c3c(cn4C)C[C@H]2N(C)C1` [methysergide] as the compound, how does the “Activity at the 5-HT2B receptor” value (5-HT2B receptor [4]) read?
**A.** significantly weaker activity

**Q.** With `CCCN1C[C@H](CSC)C[C@@H]2c3cccc4[nH]cc(c34)C[C@H]21` [pergolide] as the compound, how does the “Functionality at 5-HT2B receptors in porcine pulmonary arteries” value [5] read?
**A.** functional agonist

**Q.** What about the “Functionality at the D2 receptor” value (D2 receptor) of the same compound?
**A.** full agonists
